# According to patent US8623909B2, “Prophylactic/therapeutic agents for lifestyle-related diseases” (priority 2008, dated 2014):
# Legend:
# PSA promoter = assay: PSA promoter-luciferase activity in LNCaP cells (dual-luciferase reporter); assay type: cell-based, human; settings: 10^−5M, 24 hours, control (DMSO) 1.0
# Procedure: Plasmid pCMV-hAR was constructed based on a method previously reported by the inventors of the present invention (J. Biol. Chem., 282, 7329-7338). In addition, reporter plasmids consisting of PGL3-PSA (human) and PGL3-UCP-1 (mouse) were also constructed based on a method previously reported by the inventors of the present invention (Diabetes, 54, 1000-1008). Furthermore, pRL-SV40 was acquired commercially.
# NIH-3T30-L1 mouse preadipocytes were cultured in Dulbecco's modified Eagle's medium (Sera Laboratories) containing 10% fetal calf serum. In addition, cells of human prostate cancer cell line LNCap were cultured in RPMI 1640 medium (Sigma) containing 10% fetal calf serum. Furthermore, these two types of cell lines were obtained from the American Type Culture Collection (Manassas).
# The NIH-3T3-L1 cells of 2) above were co-transfected with pCMV-hAR, pRL-SV40 and PGL3-UCP-1 (mouse) in a 24-well plate using an Effectene Transfection Kit (Qiagen) and a Fugene HD Kit (Roche Diagnostics). In addition, the LNCaP cells of 2) above were similarly co-transfected with pCMV-hAR, pRL-SV40 and PGL3-PSA (human).
# 4) Measurement of Effect on PSA Promoter-Luciferase Activity in LNCaP Cells
# The LNCaP cells co-transfected in 3) above were cultured for 24 hours in DMEM or RPMI 1640 containing 10% fetal calf serum treated with dextran-charcoal and a test compound (dissolved in a small amount of DMSO) 24 hours after transfection. Subsequently, the activities of firefly luciferase and Renilla luciferase were assayed in a 24-well plate using the Dual-Luciferase Reporter Assay System (Promega) in accordance with the protocol of Minilumat LB9507 (Berthold Technologies). Furthermore, the value of firefly luciferase activity were normalized based on the internal Renilla control, and were presented as relative luciferase activity.
# PSA mRNA in LNCaP cells = assay: PSA mRNA expression level in LNCaP cells (real-time PCR); assay type: cell-based, human; settings: 10^−5M, 24 hours, control (DMSO) 1.0
# Procedure: (§1) 1) Extraction of Total RNA
# (§2) After respectively culturing the LNCaP cells and NIH-3T3-L1 cells co-transfected in 1) to 3) above in 6-well plates, the cells were cultured for 24 hours in EMEM or RPMI 1640 containing 10% fetal calf serum treated with dextran-charcoal and a test compound (dissolved in a small amount of DMSO). Subsequently, total RNA was respectively extracted using Isogen (Wako Pure Chemical Industries).
# (§3) 5 μg aliquots of each total RNA obtained in 1) above were reverse-transcribed to first strand cDNA using a Superscript III Kit (Invitrogen) and brought to a final volume of 20 μL. Real-time PCR was carried out using LightCycler FastStart DNA Master SYBR Green I (Roche Diagnostic) in order to quantify expression of PSA mRNA in LNCaP cells and UCP-1 mRNA in NIH-3T3-L1 cells. PCR was carried out under the following conditions in 20 μL of reaction mixture: 50 cycles consisting of denaturing for 3 seconds at 95° C., annealing for 10 seconds at 60° C. and elongating for 25 seconds at 72° C. β-actin mRNA was also simultaneously amplified for use as an internal standard. Real-time PCR value for each transcription product were calculated as a relative ratio to β-actin.
# [1] = test system: UCP-1 mRNA in NIH-3T3-L1 cells; assay: UCP-1 mRNA expression level in NIH-3T3-L1 cells (real-time PCR); assay type: cell-based, mouse; settings: 10^−5M, 24 hours, control (DMSO) 1.0
# Procedure: as §1, §2, §3
# AR = biological target: T1, AR (Homo sapiens, UniProt P10275); settings: previous studies of the inventors; cited from earlier work
# T1 sequence (P10275 1-920): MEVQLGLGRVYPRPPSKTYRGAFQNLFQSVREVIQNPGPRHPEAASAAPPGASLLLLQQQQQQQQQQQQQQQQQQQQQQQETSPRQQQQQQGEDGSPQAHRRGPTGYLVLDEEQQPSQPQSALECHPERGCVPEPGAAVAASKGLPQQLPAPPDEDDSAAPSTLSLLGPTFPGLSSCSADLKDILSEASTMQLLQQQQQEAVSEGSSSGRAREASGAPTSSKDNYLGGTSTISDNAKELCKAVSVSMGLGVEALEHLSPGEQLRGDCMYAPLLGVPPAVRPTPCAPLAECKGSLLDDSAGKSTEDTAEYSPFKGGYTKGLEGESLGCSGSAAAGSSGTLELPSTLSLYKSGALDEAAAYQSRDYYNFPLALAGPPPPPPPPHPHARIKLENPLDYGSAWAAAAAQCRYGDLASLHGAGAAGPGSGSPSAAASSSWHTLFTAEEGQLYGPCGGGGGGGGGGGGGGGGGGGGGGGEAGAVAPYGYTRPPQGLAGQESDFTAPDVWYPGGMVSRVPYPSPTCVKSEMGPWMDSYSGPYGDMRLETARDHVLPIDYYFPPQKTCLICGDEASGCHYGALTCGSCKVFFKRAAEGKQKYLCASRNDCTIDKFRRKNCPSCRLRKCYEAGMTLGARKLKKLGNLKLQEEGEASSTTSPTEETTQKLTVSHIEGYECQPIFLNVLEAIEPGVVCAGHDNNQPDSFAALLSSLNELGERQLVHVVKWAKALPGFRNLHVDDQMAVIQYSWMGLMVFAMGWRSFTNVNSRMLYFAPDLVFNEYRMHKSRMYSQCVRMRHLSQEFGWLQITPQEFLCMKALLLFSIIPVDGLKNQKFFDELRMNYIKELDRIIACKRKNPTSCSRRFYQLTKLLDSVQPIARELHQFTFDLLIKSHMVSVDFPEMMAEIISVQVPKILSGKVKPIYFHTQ
Structure (SMILES),"Value of luciferase transcription activity (PSA promoter, relative luciferase activity) (PSA promoter)",PSA mRNA (relative ratio to β-actin mRNA) (PSA mRNA in LNCaP cells),UCP-1 mRNA (relative ratio to β-actin mRNA) [1],Formation of subnuclear AR foci (dots) (in words) (AR)
"CO[C@H]1CC[C@@]2(C)C(=CCC3C4CCOC[C@@]4(C)CCC32)C1 (stereo partly drawn) [Compound of formula (IIIa), 16a-homo-16a-oxestra-5-ene-3β-methoxide]",0.8,0.8,1.8,–
CC(C)(O)C(=O)Nc1ccc([N+](=O)[O-])c(C(F)(F)F)c1 [hydroxyflutamide],–,–,–,do not form foci (dots)
CC(=O)O[C@H]1CC[C@]2(C)C3CC[C@]45C(=O)O[C@H](C)[C@H]4CCC5C3CC[C@H]2C1 (stereo partly shown) [Compound of formula (IIa)],0.8,0.9,1.4,–
